In ChEMBL document CHEMBL4507329, “Data for DCP probe BTZO-1” (2021):

Experiments:
[1] = target: T1, Macrophage migration inhibitory factor (Homo sapiens) (UniProt P14174); assay: ARE-Luc Reporter Assay (Activation of ARE (antioxidant response element)-mediated cytoprotective gene expression)
T1 sequence (whole entry): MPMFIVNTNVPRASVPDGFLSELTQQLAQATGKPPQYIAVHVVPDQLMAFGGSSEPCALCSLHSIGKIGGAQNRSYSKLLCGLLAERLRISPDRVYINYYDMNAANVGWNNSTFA

[2] = target: Activin receptor type-1 (Homo sapiens) (UniProt Q04771); conditions: Compound concentration 1000.0 nM
[3] = target: ALK tyrosine kinase receptor (Homo sapiens) (UniProt Q9UM73); conditions: Compound concentration 1000.0 nM
[4] = target: Calcium/calmodulin-dependent protein kinase type 1 (Homo sapiens) (UniProt Q14012); conditions: Compound concentration 1000.0 nM
[5] = target: Calcium/calmodulin-dependent protein kinase type II subunit delta (Homo sapiens) (UniProt Q13557); conditions: Compound concentration 1000.0 nM
[6] = target: Peripheral plasma membrane protein CASK (Homo sapiens) (UniProt O14936); conditions: Compound concentration 1000.0 nM
[7] = target: Cyclin-dependent kinase 9 (Homo sapiens) (UniProt P50750); conditions: Compound concentration 1000.0 nM
[8] = target: Cyclin-dependent kinase-like 3 (Homo sapiens) (UniProt Q8IVW4); conditions: Compound concentration 1000.0 nM
[9] = target: Casein kinase I isoform gamma-2 (Homo sapiens) (UniProt P78368); conditions: Compound concentration 1000.0 nM
[10] = target: Epidermal growth factor receptor (Homo sapiens) (UniProt P00533); conditions: Compound concentration 1000.0 nM
[11] = target: Ephrin type-A receptor 1 (Homo sapiens) (UniProt P21709); conditions: Compound concentration 1000.0 nM
[12] = target: Fibroblast growth factor receptor 2 (Homo sapiens) (UniProt P21802); conditions: Compound concentration 1000.0 nM
[13] = target: Vascular endothelial growth factor receptor 1 (Homo sapiens) (UniProt P17948); conditions: Compound concentration 1000.0 nM
[14] = target: Serine/threonine-protein kinase haspin (Homo sapiens) (UniProt Q8TF76); conditions: Compound concentration 1000.0 nM
[15] = target: Inhibitor of nuclear factor kappa-B kinase subunit beta (Homo sapiens) (UniProt O14920); conditions: Compound concentration 1000.0 nM
[16] = target: Tyrosine-protein kinase JAK1 (Homo sapiens) (UniProt P23458); conditions: Compound concentration 1000.0 nM
Sequence of Tyrosine-protein kinase JAK1 (Homo sapiens) (P23458 whole entry): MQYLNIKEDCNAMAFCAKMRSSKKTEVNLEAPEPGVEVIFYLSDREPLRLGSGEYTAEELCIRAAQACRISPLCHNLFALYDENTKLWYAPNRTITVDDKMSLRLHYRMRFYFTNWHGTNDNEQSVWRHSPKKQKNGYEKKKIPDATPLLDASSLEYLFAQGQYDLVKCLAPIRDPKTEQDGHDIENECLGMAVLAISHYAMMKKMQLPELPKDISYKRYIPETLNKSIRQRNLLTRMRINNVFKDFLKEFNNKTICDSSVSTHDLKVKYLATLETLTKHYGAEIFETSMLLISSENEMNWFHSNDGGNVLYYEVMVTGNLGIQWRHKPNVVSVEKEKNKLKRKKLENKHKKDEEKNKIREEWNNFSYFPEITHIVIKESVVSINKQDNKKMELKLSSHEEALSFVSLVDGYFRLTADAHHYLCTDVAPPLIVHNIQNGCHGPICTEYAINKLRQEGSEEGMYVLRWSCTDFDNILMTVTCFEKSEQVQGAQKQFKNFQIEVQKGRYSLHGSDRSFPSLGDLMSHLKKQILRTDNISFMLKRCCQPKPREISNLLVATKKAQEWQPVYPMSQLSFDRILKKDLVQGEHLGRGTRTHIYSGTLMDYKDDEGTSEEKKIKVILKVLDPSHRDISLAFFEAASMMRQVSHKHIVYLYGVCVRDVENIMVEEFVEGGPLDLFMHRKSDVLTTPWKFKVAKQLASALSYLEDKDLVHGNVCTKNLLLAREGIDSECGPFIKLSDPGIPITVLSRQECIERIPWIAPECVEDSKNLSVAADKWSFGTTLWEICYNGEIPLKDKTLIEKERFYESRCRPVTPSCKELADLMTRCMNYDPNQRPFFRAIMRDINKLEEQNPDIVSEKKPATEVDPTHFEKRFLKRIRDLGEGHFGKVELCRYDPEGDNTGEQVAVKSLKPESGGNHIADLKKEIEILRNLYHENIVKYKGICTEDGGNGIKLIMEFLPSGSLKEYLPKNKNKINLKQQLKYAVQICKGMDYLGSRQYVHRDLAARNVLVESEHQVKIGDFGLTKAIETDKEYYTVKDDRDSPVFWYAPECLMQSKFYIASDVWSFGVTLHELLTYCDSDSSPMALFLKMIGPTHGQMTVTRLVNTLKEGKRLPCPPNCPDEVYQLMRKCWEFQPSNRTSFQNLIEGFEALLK

[17] = target: Tyrosine-protein kinase JAK1 (Homo sapiens) (UniProt P23458); conditions: Compound concentration 1000.0 nM; remark: listed apart in the source
[18] = target: Tyrosine-protein kinase JAK3 (Homo sapiens) (UniProt P52333); conditions: Compound concentration 1000.0 nM
[19] = target: LIM domain kinase 1 (Homo sapiens) (UniProt P53667); conditions: Compound concentration 1000.0 nM
[20] = target: Leukocyte tyrosine kinase receptor (Homo sapiens) (UniProt P29376); conditions: Compound concentration 1000.0 nM
[21] = target: Mitogen-activated protein kinase kinase kinase 15 (Homo sapiens) (UniProt Q6ZN16); conditions: Compound concentration 1000.0 nM
[22] = target: Dual specificity mitogen-activated protein kinase kinase 1 (Homo sapiens) (UniProt Q02750); conditions: Compound concentration 1000.0 nM
[23] = target: Dual specificity mitogen-activated protein kinase kinase 3 (Homo sapiens) (UniProt P46734); conditions: Compound concentration 1000.0 nM
Sequence of Dual specificity mitogen-activated protein kinase kinase 3 (Homo sapiens) (P46734 whole entry): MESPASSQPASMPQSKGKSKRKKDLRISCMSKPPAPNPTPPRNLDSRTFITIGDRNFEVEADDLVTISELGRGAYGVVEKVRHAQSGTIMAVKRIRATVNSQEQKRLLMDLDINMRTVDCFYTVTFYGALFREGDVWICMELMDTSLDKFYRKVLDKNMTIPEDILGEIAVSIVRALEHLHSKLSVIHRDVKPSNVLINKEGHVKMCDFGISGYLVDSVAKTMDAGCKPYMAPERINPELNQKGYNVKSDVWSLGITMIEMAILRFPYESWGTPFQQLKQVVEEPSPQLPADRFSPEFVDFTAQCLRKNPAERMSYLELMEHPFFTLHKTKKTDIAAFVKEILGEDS

[24] = target: Serine/threonine-protein kinase mTOR (Homo sapiens) (UniProt P42345); conditions: Compound concentration 1000.0 nM
[25] = target: Myosin light chain kinase family member 4 (Homo sapiens) (UniProt Q86YV6); conditions: Compound concentration 1000.0 nM
[26] = target: Serine/threonine-protein kinase 38 (Homo sapiens) (UniProt Q15208); conditions: Compound concentration 1000.0 nM
[27] = target: Serine/threonine-protein kinase 38-like (Homo sapiens) (UniProt Q9Y2H1); conditions: Compound concentration 1000.0 nM
Sequence of Serine/threonine-protein kinase 38-like (Homo sapiens) (Q9Y2H1 2-464 limits assumed): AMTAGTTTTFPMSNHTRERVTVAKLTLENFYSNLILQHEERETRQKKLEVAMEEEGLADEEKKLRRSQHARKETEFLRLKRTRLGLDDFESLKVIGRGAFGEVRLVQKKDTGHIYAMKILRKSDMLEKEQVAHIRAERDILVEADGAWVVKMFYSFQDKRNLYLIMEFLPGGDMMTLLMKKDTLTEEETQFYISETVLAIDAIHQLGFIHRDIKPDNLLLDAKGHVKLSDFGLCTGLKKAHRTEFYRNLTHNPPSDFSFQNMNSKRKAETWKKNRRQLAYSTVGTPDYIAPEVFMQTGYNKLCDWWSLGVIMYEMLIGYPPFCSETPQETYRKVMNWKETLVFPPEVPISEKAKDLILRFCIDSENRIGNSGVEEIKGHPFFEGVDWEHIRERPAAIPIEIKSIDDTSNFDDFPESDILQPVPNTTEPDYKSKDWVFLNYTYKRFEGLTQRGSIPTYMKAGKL

[28] = target: Serine/threonine-protein kinase PAK 1 (Homo sapiens) (UniProt Q13153); conditions: Compound concentration 1000.0 nM
[29] = target: Serine/threonine-protein kinase PAK 6 (Homo sapiens) (UniProt Q9NQU5); conditions: Compound concentration 1000.0 nM
[30] = target: Cyclin-dependent kinase 16 (Homo sapiens) (UniProt Q00536); conditions: Compound concentration 1000.0 nM
[31] = target: 3-phosphoinositide-dependent protein kinase 1 (Homo sapiens) (UniProt O15530); conditions: Compound concentration 1000.0 nM
[32] = test system: Phosphatidylinositol 4,5-bisphosphate 3-kinase catalytic subunit alpha isoform (Homo sapiens), P42336 [E545A]; conditions: Compound concentration 1000.0 nM
[33] = test system: Phosphatidylinositol 4,5-bisphosphate 3-kinase catalytic subunit alpha isoform (Homo sapiens), P42336 [M1043I]; conditions: Compound concentration 1000.0 nM
Sequence of Phosphatidylinositol 4,5-bisphosphate 3-kinase catalytic subunit alpha isoform (Homo sapiens), P42336 [M1043I] (P42336 whole entry M1043I, canonical isoform): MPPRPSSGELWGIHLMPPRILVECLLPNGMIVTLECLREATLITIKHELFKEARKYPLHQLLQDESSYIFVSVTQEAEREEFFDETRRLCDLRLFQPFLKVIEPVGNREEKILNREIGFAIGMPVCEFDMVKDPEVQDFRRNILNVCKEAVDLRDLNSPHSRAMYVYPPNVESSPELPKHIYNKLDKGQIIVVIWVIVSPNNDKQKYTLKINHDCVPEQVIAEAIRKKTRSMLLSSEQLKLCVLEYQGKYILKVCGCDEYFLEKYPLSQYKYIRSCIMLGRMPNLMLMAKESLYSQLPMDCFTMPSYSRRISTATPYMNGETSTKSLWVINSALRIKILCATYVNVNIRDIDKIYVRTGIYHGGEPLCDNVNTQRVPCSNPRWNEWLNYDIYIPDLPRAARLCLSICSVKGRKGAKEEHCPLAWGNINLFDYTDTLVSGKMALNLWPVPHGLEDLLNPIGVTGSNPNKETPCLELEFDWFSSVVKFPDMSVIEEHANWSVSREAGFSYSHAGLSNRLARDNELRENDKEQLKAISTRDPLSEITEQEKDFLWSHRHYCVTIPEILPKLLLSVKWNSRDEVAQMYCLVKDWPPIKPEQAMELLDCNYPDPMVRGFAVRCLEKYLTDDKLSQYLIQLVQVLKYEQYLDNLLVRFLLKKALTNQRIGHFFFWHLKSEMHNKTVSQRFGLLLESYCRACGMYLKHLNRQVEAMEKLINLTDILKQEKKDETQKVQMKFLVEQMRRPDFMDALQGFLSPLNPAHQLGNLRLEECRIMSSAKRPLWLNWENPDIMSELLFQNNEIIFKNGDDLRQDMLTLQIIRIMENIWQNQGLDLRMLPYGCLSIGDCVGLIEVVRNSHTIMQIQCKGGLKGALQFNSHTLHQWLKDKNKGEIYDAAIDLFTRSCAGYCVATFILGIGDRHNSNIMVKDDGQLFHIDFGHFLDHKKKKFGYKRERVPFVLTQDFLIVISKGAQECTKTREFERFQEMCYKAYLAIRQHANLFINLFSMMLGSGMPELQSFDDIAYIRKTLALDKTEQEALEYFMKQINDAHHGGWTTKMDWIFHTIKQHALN

[34] = target: cAMP-dependent protein kinase catalytic subunit beta (Homo sapiens) (UniProt P22694); conditions: Compound concentration 1000.0 nM
[35] = target: Serine/threonine-protein kinase N2 (Homo sapiens) (UniProt Q16513); conditions: Compound concentration 1000.0 nM
[36] = target: Serine/threonine-protein kinase PLK3 (Homo sapiens) (UniProt Q9H4B4); conditions: Compound concentration 1000.0 nM
[37] = test system: Proto-oncogene tyrosine-protein kinase receptor Ret (Homo sapiens), P07949 [V804L]; conditions: Compound concentration 1000.0 nM
[38] = target: Receptor-interacting serine/threonine-protein kinase 2 (Homo sapiens) (UniProt O43353); conditions: Compound concentration 1000.0 nM
Sequence of Receptor-interacting serine/threonine-protein kinase 2 (Homo sapiens) (O43353 whole entry): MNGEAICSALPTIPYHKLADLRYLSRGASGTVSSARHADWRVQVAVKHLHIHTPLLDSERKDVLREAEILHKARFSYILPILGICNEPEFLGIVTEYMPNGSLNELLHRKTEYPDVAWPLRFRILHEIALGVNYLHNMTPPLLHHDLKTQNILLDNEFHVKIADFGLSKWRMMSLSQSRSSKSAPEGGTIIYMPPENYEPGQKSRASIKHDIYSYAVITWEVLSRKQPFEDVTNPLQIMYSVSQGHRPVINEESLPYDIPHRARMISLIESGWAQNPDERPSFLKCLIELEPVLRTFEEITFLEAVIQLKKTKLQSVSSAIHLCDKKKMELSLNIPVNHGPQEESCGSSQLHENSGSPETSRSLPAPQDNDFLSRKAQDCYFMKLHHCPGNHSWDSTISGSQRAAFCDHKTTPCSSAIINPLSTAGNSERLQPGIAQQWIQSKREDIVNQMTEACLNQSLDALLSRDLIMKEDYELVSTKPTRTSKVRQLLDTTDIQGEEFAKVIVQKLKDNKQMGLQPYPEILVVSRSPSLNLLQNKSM

[39] = target: Ribosomal protein S6 kinase alpha-5 (Homo sapiens) (UniProt O75582); conditions: Compound concentration 1000.0 nM
Sequence of Ribosomal protein S6 kinase alpha-5 (Homo sapiens) (O75582 whole entry, looked up): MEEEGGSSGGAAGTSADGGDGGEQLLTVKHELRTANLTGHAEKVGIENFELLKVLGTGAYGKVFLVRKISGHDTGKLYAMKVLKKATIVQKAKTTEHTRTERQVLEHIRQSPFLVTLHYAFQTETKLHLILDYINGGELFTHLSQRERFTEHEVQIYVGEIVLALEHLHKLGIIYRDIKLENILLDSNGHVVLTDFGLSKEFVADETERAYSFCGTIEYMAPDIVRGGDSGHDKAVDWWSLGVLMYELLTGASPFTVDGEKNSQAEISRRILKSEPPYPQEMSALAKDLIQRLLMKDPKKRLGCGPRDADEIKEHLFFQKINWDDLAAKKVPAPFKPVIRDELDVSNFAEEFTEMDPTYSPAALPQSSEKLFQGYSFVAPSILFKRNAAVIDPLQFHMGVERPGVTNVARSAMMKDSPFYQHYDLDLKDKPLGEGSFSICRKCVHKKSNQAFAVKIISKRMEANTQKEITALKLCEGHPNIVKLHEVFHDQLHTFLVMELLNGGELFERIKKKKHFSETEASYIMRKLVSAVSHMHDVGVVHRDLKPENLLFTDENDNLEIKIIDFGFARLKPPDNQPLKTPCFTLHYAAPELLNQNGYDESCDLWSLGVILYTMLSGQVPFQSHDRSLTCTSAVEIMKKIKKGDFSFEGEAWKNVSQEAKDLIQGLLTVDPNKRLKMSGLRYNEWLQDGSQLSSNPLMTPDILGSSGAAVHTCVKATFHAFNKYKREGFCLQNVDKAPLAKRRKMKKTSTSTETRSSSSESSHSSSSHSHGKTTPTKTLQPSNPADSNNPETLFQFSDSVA

[40] = target: Ribosomal protein S6 kinase alpha-3 (Homo sapiens) (UniProt P51812); conditions: Compound concentration 1000.0 nM
[41] = target: SRSF protein kinase 1 (Homo sapiens) (UniProt Q96SB4); conditions: Compound concentration 1000.0 nM
Sequence of SRSF protein kinase 1 (Homo sapiens) (Q96SB4 whole entry): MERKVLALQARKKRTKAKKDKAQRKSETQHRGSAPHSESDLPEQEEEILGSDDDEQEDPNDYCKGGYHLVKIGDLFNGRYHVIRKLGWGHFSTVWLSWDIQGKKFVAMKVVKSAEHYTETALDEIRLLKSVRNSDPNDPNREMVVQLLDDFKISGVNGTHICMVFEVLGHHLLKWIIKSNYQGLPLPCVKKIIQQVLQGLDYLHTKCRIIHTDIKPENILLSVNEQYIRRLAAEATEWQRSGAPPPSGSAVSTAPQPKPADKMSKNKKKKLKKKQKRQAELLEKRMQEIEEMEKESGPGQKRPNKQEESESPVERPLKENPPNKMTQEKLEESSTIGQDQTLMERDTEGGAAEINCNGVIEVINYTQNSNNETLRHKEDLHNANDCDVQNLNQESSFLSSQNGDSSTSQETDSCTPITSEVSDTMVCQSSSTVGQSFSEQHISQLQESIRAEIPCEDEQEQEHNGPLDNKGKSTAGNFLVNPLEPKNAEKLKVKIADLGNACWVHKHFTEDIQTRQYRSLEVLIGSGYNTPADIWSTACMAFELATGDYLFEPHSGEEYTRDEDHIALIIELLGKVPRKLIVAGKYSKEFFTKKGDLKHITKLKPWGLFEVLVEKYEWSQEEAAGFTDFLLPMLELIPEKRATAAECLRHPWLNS

[42] = target: Tyrosine-protein kinase SYK (Homo sapiens) (UniProt P43405); conditions: Compound concentration 1000.0 nM
[43] = target: Mu-type opioid receptor (Homo sapiens) (UniProt P35372); conditions: Compound concentration 10.0 uM

`O=c1nc(-c2ccccn2)sc2ccccc12` [BTZO-1] was tested, and the MEC2.0 [1] was 820 nM, the residual activity [2] was 79% and the residual activity [3] was 84%. For the same molecule, the residual activity [4] was 92%, the residual activity [5] was 90% and the residual activity [6] was 84%. The residual activity [7] was 95%, the residual activity [8] was 88% and the residual activity [9] was 74%. The residual activity [10] was 70%, the residual activity [11] was 100% and the residual activity [12] was 100%. For the same molecule, the residual activity [13] was 100%, the residual activity [14] was 100% and the residual activity [15] was 100%. The residual activity [16] was 71%, the residual activity [17] was 86% and the residual activity [18] was 100%. The residual activity [19] was 84%, the residual activity [20] was 99% and the residual activity [21] was 100%. For the same molecule, the residual activity [22] was 100%, the residual activity [23] was 75% and the residual activity [24] was 100%. For the same molecule, the residual activity [25] was 87%, the residual activity [26] was 76% and the residual activity [27] was 66%. For the same molecule, the residual activity [28] was 94%, the residual activity [29] was 100% and the residual activity [30] was 100%. The residual activity [31] was 100%, the residual activity [32] was 92% and the residual activity [33] was 100%. It also gave a residual activity [34] of 92%, a residual activity [35] of 100% and a residual activity [36] of 82%. The residual activity [37] was 70%, the residual activity [38] was 82% and the residual activity [39] was 88%. The residual activity [40] was 88%, the residual activity [41] was 83% and the residual activity [42] was 97%. It also gave an inhibition [43] of 3.52%.
`O=C1NC(c2ccccn2)Sc2ccccc21` (configuration not stated) [BTZO-4] gave an MEC1.5 [1] greater than 1 µM, an MEC2.0 [1] greater than 10000 nM and a residual activity [2] of 82%. For the same molecule, the residual activity [3] was 89%, the residual activity [4] was 91% and the residual activity [5] was 75%. For the same molecule, the residual activity [6] was 71%, the residual activity [7] was 100% and the residual activity [8] was 88%. For the same molecule, the residual activity [9] was 88%, the residual activity [10] was 82% and the residual activity [11] was 100%. The residual activity [12] was 100%, the residual activity [13] was 100% and the residual activity [14] was 100%. For the same molecule, the residual activity [15] was 100%, the residual activity [16] was 68% and the residual activity [17] was 69%. For the same molecule, the residual activity [18] was 100%, the residual activity [19] was 78% and the residual activity [20] was 89%. For the same molecule, the residual activity [21] was 85%, the residual activity [22] was 100% and the residual activity [23] was 81%. For the same molecule, the residual activity [24] was 100%, the residual activity [25] was 90% and the residual activity [26] was 76%. For the same molecule, the residual activity [27] was 58%, the residual activity [28] was 96% and the residual activity [29] was 100%. For the same molecule, the residual activity [30] was 100%, the residual activity [31] was 97% and the residual activity [32] was 97%. The residual activity [33] was 74%, the residual activity [34] was 97% and the residual activity [35] was 100%. It also gave a residual activity [36] of 88%, a residual activity [37] of 69% and a residual activity [38] of 100%. For the same molecule, the residual activity [39] was 87%, the residual activity [40] was 78% and the residual activity [41] was 73%. The residual activity [42] was 75% and the inhibition [43] was 6.47%.
